PubChem BioAssay (NCI)
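48-hour exposure; five concentrations; linearly interpolated endpoints. TGI denotes the concentration required for complete inhibition of growth.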

Columns and labels:
Test in all cases: DTP human tumour cell line panel, 48 h
786-0 renal = test system: 786-0 renal
A498 renal = test system: A498 renal
A549 NSCLC = test system: A549 NSCLC
ACHN renal = test system: ACHN renal
CAKI-1 renal = test system: CAKI-1 renal
CCRF-CEM leukemia = test system: CCRF-CEM leukemia
DU-145 prostate = test system: DU-145 prostate
EKVX NSCLC = test system: EKVX NSCLC
HCC-2998 colon = test system: HCC-2998 colon
HCT-15 colon = test system: HCT-15 colon
HL-60(TB) leukemia = test system: HL-60(TB) leukemia
HT29 colon = test system: HT29 colon
M14 melanoma = test system: M14 melanoma
MCF7 breast = test system: MCF7 breast
MDA-MB-435 = test system: MDA-MB-435
NCI/ADR-RES ovarian = test system: NCI/ADR-RES ovarian
OVCAR-5 ovarian = test system: OVCAR-5 ovarian
PC-3 prostate = test system: PC-3 prostate
SN12C renal = test system: SN12C renal
SNB-19 CNS = test system: SNB-19 CNS
SW-620 colon = test system: SW-620 colon
TK-10 renal = test system: TK-10 renal
UACC-257 melanoma = test system: UACC-257 melanoma
UACC-62 melanoma = test system: UACC-62 melanoma
UO-31 renal = test system: UO-31 renal
BT-549 breast = test system: BT-549 breast
COLO 205 colon = test system: COLO 205 colon
HCT-116 colon = test system: HCT-116 colon
HOP-62 NSCLC = test system: HOP-62 NSCLC
HOP-92 NSCLC = test system: HOP-92 NSCLC
HS 578T breast = test system: HS 578T breast
IGROV1 ovarian = test system: IGROV1 ovarian
K-562 leukemia = test system: K-562 leukemia
KM12 colon = test system: KM12 colon
LOX IMVI melanoma = test system: LOX IMVI melanoma
MALME-3M melanoma = test system: MALME-3M melanoma
MDA-MB-231 breast = test system: MDA-MB-231 breast
MOLT-4 leukemia = test system: MOLT-4 leukemia
NCI-H226 lung = test system: NCI-H226 lung
NCI-H23 lung = test system: NCI-H23 lung
NCI-H460 lung = test system: NCI-H460 lung
NCI-H522 lung = test system: NCI-H522 lung
OVCAR-3 ovarian = test system: OVCAR-3 ovarian
OVCAR-4 ovarian = test system: OVCAR-4 ovarian
OVCAR-8 ovarian = test system: OVCAR-8 ovarian
RPMI-8226 leukemia = test system: RPMI-8226 leukemia
RXF 393 renal = test system: RXF 393 renal
SF-268 CNS = test system: SF-268 CNS
SF-295 CNS = test system: SF-295 CNS
SF-539 CNS = test system: SF-539 CNS
SK-MEL-2 melanoma = test system: SK-MEL-2 melanoma
SK-MEL-28 melanoma = test system: SK-MEL-28 melanoma
SK-MEL-5 melanoma = test system: SK-MEL-5 melanoma
SK-OV-3 ovarian = test system: SK-OV-3 ovarian
SNB-75 CNS = test system: SNB-75 CNS
SR leukemia = test system: SR leukemia
T-47D breast = test system: T-47D breast
U251 CNS = test system: U251 CNS

## c1cc(-c2ccc(-c3ccc(C4=NC5CCCCC5N4)cc3)o2)ccc1C1=NC2CCCCC2N1 (configuration not stated)
786-0 renal
  TGI: 2810 nM
A498 renal
  TGI: 9.04 µM
A549 NSCLC
  TGI: 3.14 µM
ACHN renal
  TGI: 5.7 µM
CAKI-1 renal
  TGI: > 100 µM
CCRF-CEM leukemia
  TGI: > 100 µM
DU-145 prostate
  TGI: 3.33 µM
EKVX NSCLC
  TGI: 3.42 µM
HCC-2998 colon
  TGI: 2560 nM
HCT-15 colon
  TGI: 79.4 µM
HL-60(TB) leukemia
  TGI: 4.86 µM
HT29 colon
  TGI: 2890 nM
M14 melanoma
  TGI: 3.01 µM
MCF7 breast
  TGI: 2530 nM
MDA-MB-435
  TGI: 4.84 µM
NCI/ADR-RES ovarian
  TGI: > 100 µM
OVCAR-5 ovarian
  TGI: 4.55 µM
PC-3 prostate
  TGI: 2780 nM
SN12C renal
  TGI: 3.03 µM
SNB-19 CNS
  TGI: 2800 nM
SW-620 colon
  TGI: > 100 µM
TK-10 renal
  TGI: 16.4 µM
UACC-257 melanoma
  TGI: 3.28 µM
UACC-62 melanoma
  TGI: 3.14 µM
UO-31 renal
  TGI: 6.89 µM

## Nc1ccc(N=Nc2ccc(-c3ccc(O)cc3)cc2)c2ccc(S(=O)(=O)O)cc12
786-0 renal
  TGI: > 100000 nM
A498 renal
  TGI: > 100 µM
A549 NSCLC
  TGI: > 100 µM
ACHN renal
  TGI: > 100 µM
BT-549 breast
  TGI: > 100 µM
CAKI-1 renal
  TGI: > 100 µM
CCRF-CEM leukemia
  TGI: > 100 µM
COLO 205 colon
  TGI: > 100 µM
DU-145 prostate
  TGI: > 100 µM
EKVX NSCLC
  TGI: > 100 µM
HCT-116 colon
  TGI: > 100 µM
HCT-15 colon
  TGI: > 100 µM
HL-60(TB) leukemia
  TGI: > 100 µM
HOP-62 NSCLC
  TGI: > 100 µM
HOP-92 NSCLC
  TGI: > 100 µM
HS 578T breast
  TGI: > 100 µM
HT29 colon
  TGI: > 100000 nM
IGROV1 ovarian
  TGI: > 100 µM
K-562 leukemia
  TGI: > 100 µM
KM12 colon
  TGI: > 100 µM
LOX IMVI melanoma
  TGI: > 100 µM
M14 melanoma
  TGI: > 100 µM
MALME-3M melanoma
  TGI: > 100 µM
MCF7 breast
  TGI: > 100000 nM
MDA-MB-231 breast
  TGI: > 100 µM
MDA-MB-435
  TGI: > 100 µM
MOLT-4 leukemia
  TGI: > 100 µM
NCI-H226 lung
  TGI: > 100 µM
NCI-H23 lung
  TGI: > 100 µM
NCI-H460 lung
  TGI: > 100 µM
NCI-H522 lung
  TGI: > 100 µM
NCI/ADR-RES ovarian
  TGI: > 100 µM
OVCAR-3 ovarian
  TGI: > 100 µM
OVCAR-4 ovarian
  TGI: > 100 µM
OVCAR-5 ovarian
  TGI: > 100 µM
OVCAR-8 ovarian
  TGI: > 100 µM
PC-3 prostate
  TGI: > 100000 nM
RPMI-8226 leukemia
  TGI: > 100 µM
RXF 393 renal
  TGI: > 100 µM
SF-268 CNS
  TGI: > 100 µM
SF-295 CNS
  TGI: > 100 µM
SF-539 CNS
  TGI: > 100 µM
SK-MEL-2 melanoma
  TGI: > 100 µM
SK-MEL-28 melanoma
  TGI: > 100 µM
SK-MEL-5 melanoma
  TGI: > 100 µM
SK-OV-3 ovarian
  TGI: > 100 µM
SN12C renal
  TGI: > 100 µM
SNB-19 CNS
  TGI: > 100000 nM
SNB-75 CNS
  TGI: > 100 µM
SR leukemia
  TGI: > 100 µM
SW-620 colon
  TGI: > 100 µM
T-47D breast
  TGI: > 100 µM
TK-10 renal
  TGI: > 100 µM
U251 CNS
  TGI: > 100 µM
UACC-257 melanoma
  TGI: > 100 µM
UACC-62 melanoma
  TGI: > 100 µM
UO-31 renal
  TGI: > 100 µM
